SMILES strings stand for the structures. Like-named read-outs stand apart in the source and are kept apart here.

Format in all cases: cell-based
One experiment deals with Ba/F3-EGFR-L858R. Put plainly: Ba/F3 cell survival assay, EGFR L858R. The following applies: 48 h, read-out: BA/F3 (EGFR L858R) IC50. Here is the method: (§1) 293T cells from ATCC were transfected with pBABEpuro expression constructs for mutant EGFR (V769_D770insASV, D770_N771insNPG, N771_P772insH, H773_V774insNPH, E746_A750del, L858R, D770_N771 insSVD C797S, E746_A750del C797S, L858R C797S, L861Q) or mutant ERBB2 (A775_G776insYVMA) and pCL-Eco packaging vector using Fugene-6 transfection reagent from Promega. Plates were incubated at 37° C. for 48 h. Retrovirus was harvested by filtering the media supernatant through a 0.45 μm filter.
(§2) Ba/F3 cells purchased from DSMZ were grown in RPMI+10% FBS+10 ng/mL IL-3 and infected with filtered retroviral supernatant at a 1:2 dilution. Polybrene was added to a concentration of 8 μg/mL, plates were spun for 90 min, and incubated overnight at 37° C. 2 μg/mL puromycin was added to the infected cells 24 h after infection and cells were continually grown in the presence of puromycin and 10 ng/mL IL-3. Following stably expressing Ba/F3 cell lines were generated: Ba/F3-EGFR-V769_D770insASV, Ba/F3-EGFR-D770_N771insNPG, Ba/F3-EGFR-N771_P772insH, Ba/F3-EG, Ba/F3-EGFR-H773_V774insNPH, Ba/F3-EGFR-E746_A750del, Ba/F3-EGFR-L858R, Ba/F3-EGFR-D770_N771 insSVD C797S, Ba/F3-EGFR-E746_A750del C797S, Ba/F3-EGFR-L858R C797S, Ba/F3-EGFR L861Q and Ba/F3-ERBB2-A775_G776insYVMA (Ba/F3—vector-control).
(§3) For cell survival assays, Ba/F3 cells were grown to a density of 1-2 million cells per mL, spun down and resuspended in media without IL-3, and replated at a concentration 200,000-500,000 cells per mL. The cells ectopically expressing WT EGFR plated with 10 ng/mL Millipore Culture grade EGF and Ba/F3 cells containing mutant EGFR or Mutant ERBB2 were cultivated without EGF. The cells ectopically expressing pBABEpuro empty vector were plated with 10 ng/mL IL-3.
(§4) 2 days later, cells were plated in 50 μL in a 384 well plate at a concentration of 4000 cells per well for cells assayed in the absence of IL-3 and 2000 cells per well for cells assayed in the presence of IL-3. 100 nL of compound was added to each well using a 100 nL pin head, and plates were incubated at 37° C. for 48 h.
(§5) Cell viability was measured by adding 20 μL of Cell Titer-Glo Luminescent Cell Viability Reagent diluted 1:3 in PBS. Plates were sealed with Perkin Elmer Top-Seal, inverted several times to mix, and immediately centrifuged at 1000 rpm for 2 min. Plates were incubated in low light conditions for 8-10 min and luminescence was measured.

The subject of experiment [1] is Ba/F3-EGFR-H773_V774insNPH. The experiment can be described thus: Ba/F3 cell survival assay, EGFR H773_V774insNPH. The following applies: Ba/F3 EGFR-H773-V774ins_NPH, 48 h, read-out: BA/F3 (EGFR H773— V774insNPH) IC50. Here is the method: as §1, §2, §3, §4, §5
For a further experiment, the system named is HCC-827 cells. Put plainly: HCC-827 cell proliferation assay (EGFRex19del). The following applies: Homo sapiens, HCC827, 72 h, read-out: HCC-827 IC50. Here is the method: HCC-827 cells were purchased from ATCC. […] cells per well were seeded in growth medium (RPMI1640, 10% FCS) in a 384-well plate (CORNING #3571). Seed reference plate for time zero determination on the same day. All plates were incubated overnight at 37° C. After 24 hours, test compound were added in 7-step dilution using HP Compound printer and incubated at 37° C. for 72 h. After 3 days, 30 μL/well CTG solution (Promega Cell Titer Glo solution; catalog #G755B and G756B) were added to each well, incubated for 30 minutes and the plate were read on PheraStar. Proliferation is calculated after subtracting time zero luminescence values from day 4 values and comparing to untreated wells.
The IC50 values were determined using the four parameter fit.

The subject of the next experiment is Ba/F3-EGFR-insSVD. Put plainly: Ba/F3 cell survival assay, EGFR-insSVD. The procedure, abridged: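 Ba/F3 cells stably expressing WT EGFR or EGFR-insSVD via retrovirus, grown without IL-3 on 10 ng/mL EGF, plated at 4000 cells/well. Compound exposure 48 h at 37 °C; viability read by CellTiter-Glo luminescence.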
Experiment [2] relates to Ba/F3-EGFR-D770_N771insNPG. Put plainly: Ba/F3 cell survival assay, EGFR D770_N771insNPG. The following applies: Mus musculus, BaF3, 48 h, read-out: BA/F3 (insNPG) IC50. Here is the method:
as §1, §2, §3, §4, §5

The next experiment relates to Ba/F3-EGFR-L858R C797S. Put plainly: Ba/F3 cell survival assay, EGFR L858R C797S. Conditions: 48 h, read-out: BA/F3 (EGFR L858R C797S) IC50. On the procedure: as §1, §2, §3, §4, §5
The next experiment relates to Ba/F3-EGFR L861Q. The experiment can be described thus: Ba/F3 cell survival assay, EGFR L861Q. The following applies: 48 h, read-out: BA/F3 (EGFR L861Q) IC50. Here is the method:
as §1, §2, §3, §4, §5

The mark [3] stands for this setting: read-out: BA/F3 (insSVD) IC50, cell viability, Cell Titer-Glo, 48 h, with 10 ng/mL EGF, without IL-3.

Turning to `COc1c(Cl)cccc1Nc1c(-c2ccncc2OCC2(C)CCO2)[nH]c2c1C(=O)NCC2` (single isomer, unassigned; (+)) [Example 48, (+)-3-(3-chloro-2-methoxyanilino)-2-{3-[(2-methyloxetan-2-yl)methoxy]pyridin-4-yl}-1,5,6,7-tetrahydro-4H-pyrrolo[3,2-c]pyridin-4-one], the IC50 in the experiment on Ba/F3-EGFR-L858R was 1.28 nM; in experiment [1], 38.3 nM; in the experiment with HCC-827 cells, under 3 nM; in the experiment on Ba/F3-EGFR-insSVD (setting [3]) it was 9.65 nM; in experiment [2], 8.52 nM; in the experiment on Ba/F3-EGFR-L858R C797S, 1.28 nM. Moreover, the IC50 with Ba/F3-EGFR L861Q stood at 14.9 nM.

Turning to `COc1c(Cl)cccc1Nc1c(-c2ccncc2OCC2OCC2(C)C)[nH]c2c1C(=O)NCC2` (single isomer, unassigned; (+)) [Example 50, (+)-3-(3-chloro-2-methoxyanilino)-2-{3-[(3,3-dimethyloxetan-2-yl)methoxy]pyridin-4-yl}-1,5,6,7-tetrahydro-4H-pyrrolo[3,2-c]pyridin-4-one], the IC50 in the experiment with Ba/F3-EGFR-L858R is 1.62 nM; in experiment [1], 45.4 nM; with HCC-827 cells, under 3 nM; with Ba/F3-EGFR-insSVD (setting [3]) it was 8.76 nM; in experiment [2], 9.18 nM; in the experiment with Ba/F3-EGFR-L858R C797S, 2.92 nM. For the same compound, the IC50 with Ba/F3-EGFR L861Q worked out at 21.3 nM.

On to `COc1c(Cl)cccc1Nc1c(-c2ccncc2OCCC2CCO2)[nH]c2c1C(=O)NCC2` (single isomer, unassigned; (-)) [Example 26, (−)-3-(3-chloro-2-methoxyanilino)-2-{3-[2-(oxetan-2-yl)ethoxy]pyridin-4-yl}-1,5,6,7-tetrahydro-4H-pyrrolo[3,2-c]pyridin-4-one], for which the IC50 was 0.813 nM in the experiment with Ba/F3-EGFR-L858R; 29.6 nM in experiment [1]; under 3 nM with HCC-827 cells; 7.31 nM with Ba/F3-EGFR-insSVD (setting [3]); 7.64 nM in experiment [2]; 1 nM in the experiment on Ba/F3-EGFR-L858R C797S. Moreover, in the experiment on Ba/F3-EGFR L861Q, the IC50 stood at 6.51 nM.

Regarding `COc1c(Cl)cccc1Nc1c(-c2ccncc2OC[C@@H]2CCO2)[nH]c2c1C(=O)NCC2` [Example 2, 3-(3-chlor-2-methoxyanilino)-2-{3-[(2S)-oxetan-2-ylmethoxy]pyridin-4-yl}-1,5,6,7-tetrahydro-4H-pyrrolo[3,2-c]pyridin-4-on], the IC50 in the experiment with Ba/F3-EGFR-L858R was 1.2 nM; in experiment [1] it was 30.1 nM; with HCC-827 cells, under 3 nM; with Ba/F3-EGFR-insSVD (Mus musculus, BaF3, 48 h, read-out: BA/F3 (insSVD) IC50, cell viability, Cell Titer-Glo, 48 h, with 10 ng/mL EGF, without IL-3) it was 10.3 nM; in experiment [2], 9.76 nM; in the experiment with Ba/F3-EGFR-L858R C797S, 1.53 nM. In the experiment with Ba/F3-EGFR L861Q, the IC50 came to 16.8 nM.

For the origin of these results see patent US20240307362A1 (priority 2019, published 2024).
